Data from PMC9934367, “Functional impact of subunit composition and compensation on Drosophila melanogaster nicotinic receptors–targets of neonicotinoids” (PLOS Genetics, 2023).

Test system: D. melanogaster nAChRs
Assay: Comparison of agonist activity between nAChRs expressed in X. laevis oocytes (one-way ANOVA, Kruskal-Wallis)
Format: cell-based
Procedure: We minimised the use of X. laevis according to the UK Animals (Scientific Procedures) Act, 1986. […] Oocytes were defolliculated after collagenase treatment in Ca^2+-free standard oocyte saline (Ca^2+-free SOS). cRNAs of the nAChR subunits and co-factors mixed at a concentration of 0.1 mg/mL was injected into oocytes at a volume of 50 nL. Then the oocytes were incubated in the incubation medium (SOS supplemented with sodium pyruvate (Nacalai Tesque, #13058–12), penicillin-streptomycin (MilliporeSigma, #P4333), gentamycin (Nacalai Tesque, #16672–04), and 4% horse serum (Thermo Fisher Scientific, #26050–070) for 3−4 days prior to electrophysiology.
Each defolliculated X. laevis oocyte was secured in a Perspex recording chamber and perfused with the standard oocyte saline (SOS) containing 0.5 μM atropine (SOSA) at a flow rate of 7−10 mL/min [48]. Two glass electrodes filled with 2 M KCl were impaled into each oocyte and the membrane potential was clamped at -100 mV. […] The peak amplitude of the response was measured and analysed by pCLAMP (Molecular Devices, USA).
Y=Imax/1+10^(logEC50‐X)nH
Where Y is the normalised response, X is log[ligand (M)], EC50 is the half maximal concentration (M), Imax is the maximum normalised response and nH is the Hill coefficient.
Prism software was employed for the statistical analyses. […] One-way ANOVA was used to analyse the differences of the ligand agonist activity in terms of pEC50 on the various nAChRs expressed in X. laevis as well as data obtained with D. melanogaster larvae and adults.

[1] = Dα1/Dα2/Dα3/Dβ1/Dβ2 vs. Dα1/Dα2/Dα4/Dβ1/Dβ2
[2] = Dα1/Dα2/Dα3/Dβ1/Dβ2 vs. Dα1/Dα2/Dβ1/Dβ2/Dβ3
[3] = Dα1/Dα2/Dα3/Dβ1/Dβ2 vs. Dα1/Dα3/Dα4/Dβ1/Dβ2
[4] = Dα1/Dα2/Dα3/Dβ1/Dβ2 vs. Dα1/Dα3/Dβ1/Dβ2/Dβ3
[5] = Dα1/Dα2/Dα3/Dβ1/Dβ2 vs. Dα2/Dα3/Dα4/Dβ1/Dβ2
[6] = Dα1/Dα2/Dα3/Dβ1/Dβ2 vs. Dα2/Dα3/Dβ1/Dβ2/Dβ3
[7] = Dα1/Dα2/Dα3/Dβ1 vs. Dα1/Dα2/Dα3/Dβ1/Dβ2
[8] = Dα1/Dα2/Dα3/Dβ1 vs. Dα1/Dα2/Dβ1/Dβ2
[9] = Dα1/Dα2/Dα3/Dβ1 vs. Dα1/Dα3/Dβ1/Dβ2
[10] = Dα1/Dα2/Dα3/Dβ1 vs. Dα1/Dβ1/Dβ2
[11] = Dα1/Dα2/Dα3/Dβ1 vs. Dα2/Dα3/Dβ1/Dβ2
[12] = Dα1/Dα2/Dα3/Dβ1 vs. Dα3/Dβ1/Dβ2
[13] = Dα1/Dα2/Dβ1/Dβ2 vs. Dα1/Dα2/Dα3/Dβ1/Dβ2
[14] = Dα1/Dα2/Dβ1/Dβ2 vs. Dα2/Dα3/Dβ1/Dβ2
[15] = Dα1/Dα2/Dβ1 vs. Dα1/Dα2/Dα3/Dβ1
[16] = Dα1/Dα2/Dβ1 vs. Dα1/Dα2/Dα3/Dβ1/Dβ2
[17] = Dα1/Dα2/Dβ1 vs. Dα1/Dα2/Dβ1/Dβ2
[18] = Dα1/Dα2/Dβ1 vs. Dα1/Dα3/Dβ1/Dβ2
[19] = Dα1/Dα2/Dβ1 vs. Dα2/Dα3/Dβ1/Dβ2
[20] = Dα1/Dα3/Dβ1/Dβ2 vs. Dα1/Dα2/Dα3/Dβ1/Dβ2
[21] = Dα1/Dα3/Dβ1/Dβ2 vs. Dα1/Dα2/Dβ1/Dβ2
[22] = Dα1/Dα3/Dβ1/Dβ2 vs. Dα2/Dα3/Dβ1/Dβ2
[23] = Dα1/Dα3/Dβ1 vs. Dα1/Dα2/Dα3/Dβ1
[24] = Dα1/Dα3/Dβ1 vs. Dα1/Dα2/Dα3/Dβ1/Dβ2
[25] = Dα1/Dα3/Dβ1 vs. Dα1/Dα2/Dβ1/Dβ2
[26] = Dα1/Dα3/Dβ1 vs. Dα1/Dα3/Dβ1/Dβ2
[27] = Dα1/Dα3/Dβ1 vs. Dα2/Dα3/Dβ1/Dβ2
[28] = Dα1/Dβ1/Dβ2 vs. Dα1/Dα2/Dα3/Dβ1/Dβ2
[29] = Dα1/Dβ1/Dβ2 vs. Dα1/Dα2/Dβ1/Dβ2

Compound: CN/C(=N\[N+](=O)[O-])NCc1cnc(Cl)s1 [Clothianidin, clothianidin]
- Difference of Imax values, nAChRs compared [1]: -0.189
- Difference of pEC50 values, nAChRs compared [1]: -0.13
- Difference of Imax values, nAChRs compared [2]: -0.162
- Difference of pEC50 values, nAChRs compared [2]: 0.92
- Difference of Imax values, nAChRs compared [3]: 0.388
- Difference of pEC50 values, nAChRs compared [3]: -0.35
- Difference of Imax values, nAChRs compared [4]: 0.281
- Difference of pEC50 values, nAChRs compared [4]: -1.01
- Difference of Imax values, nAChRs compared [5]: -0.100
- Difference of pEC50 values, nAChRs compared [5]: -0.52
- Difference of Imax values, nAChRs compared [6]: 0.117
- Difference of pEC50 values, nAChRs compared [6]: -0.87
- Difference of Imax values, nAChRs compared [7]: 0.005
- Difference of pEC50 values, nAChRs compared [7]: -0.04
- Difference of Imax values, nAChRs compared [8]: 0.017
- Difference of pEC50 values, nAChRs compared [8]: 0.24
- Difference of Imax values, nAChRs compared [9]: 0.133
- Difference of pEC50 values, nAChRs compared [9]: -0.85
- Difference of Imax values, nAChRs compared [10]: 0.457
- Difference of pEC50 values, nAChRs compared [10]: -0.09
- Difference of Imax values, nAChRs compared [11]: 0.183
- Difference of pEC50 values, nAChRs compared [11]: -0.74
- Difference of Imax values, nAChRs compared [12]: 0.325
- Difference of pEC50 values, nAChRs compared [12]: -0.91
- Difference of Imax values, nAChRs compared [13]: -0.012
- Difference of pEC50 values, nAChRs compared [13]: -0.28
- Difference of Imax values, nAChRs compared [14]: 0.166
- Difference of pEC50 values, nAChRs compared [14]: -0.98
- Difference of Imax values, nAChRs compared [15]: -0.118
- Difference of pEC50 values, nAChRs compared [15]: -1.48
- Difference of Imax values, nAChRs compared [16]: -0.113
- Difference of pEC50 values, nAChRs compared [16]: -1.52
- Difference of Imax values, nAChRs compared [17]: -0.101
- Difference of pEC50 values, nAChRs compared [17]: -1.24
- Difference of Imax values, nAChRs compared [18]: 0.015
- Difference of pEC50 values, nAChRs compared [18]: -2.33
- Difference of Imax values, nAChRs compared (Dα1/Dα2/Dβ1 vs. Dα1/Dβ1/Dβ2): 0.339
- Difference of pEC50 values, nAChRs compared (Dα1/Dα2/Dβ1 vs. Dα1/Dβ1/Dβ2): -1.57
- Difference of Imax values, nAChRs compared (Dα1/Dα2/Dβ1 vs. Dα2/Dα3/Dβ1): -0.183
- Difference of pEC50 values, nAChRs compared (Dα1/Dα2/Dβ1 vs. Dα2/Dα3/Dβ1): -1.74
- Difference of Imax values, nAChRs compared [19]: 0.065
- Difference of pEC50 values, nAChRs compared [19]: -2.22
- Difference of Imax values, nAChRs compared (Dα1/Dα2/Dβ1 vs. Dα3/Dβ1/Dβ2): 0.207
- Difference of pEC50 values, nAChRs compared (Dα1/Dα2/Dβ1 vs. Dα3/Dβ1/Dβ2): -2.39
- Difference of Imax values, nAChRs compared [20]: -0.128
- Difference of pEC50 values, nAChRs compared [20]: 0.81
- Difference of Imax values, nAChRs compared [21]: -0.116
- Difference of pEC50 values, nAChRs compared [21]: 1.09
- Difference of Imax values, nAChRs compared [22]: 0.050
- Difference of pEC50 values, nAChRs compared [22]: 0.11
- Difference of Imax values, nAChRs compared [23]: -0.190
- Difference of pEC50 values, nAChRs compared [23]: 0.65
- Difference of Imax values, nAChRs compared [24]: -0.185
- Difference of pEC50 values, nAChRs compared [24]: 0.61
- Difference of Imax values, nAChRs compared (Dα1/Dα3/Dβ1 vs. Dα1/Dα2/Dβ1): -0.072
- Difference of pEC50 values, nAChRs compared (Dα1/Dα3/Dβ1 vs. Dα1/Dα2/Dβ1): 2.13
- Difference of Imax values, nAChRs compared [25]: -0.173
- Difference of pEC50 values, nAChRs compared [25]: 0.89
- Difference of Imax values, nAChRs compared [26]: -0.057
- Difference of pEC50 values, nAChRs compared [26]: -0.20
- Difference of Imax values, nAChRs compared (Dα1/Dα3/Dβ1 vs. Dα1/Dβ1/Dβ2): 0.267
- Difference of pEC50 values, nAChRs compared (Dα1/Dα3/Dβ1 vs. Dα1/Dβ1/Dβ2): 0.56
- Difference of Imax values, nAChRs compared (Dα1/Dα3/Dβ1 vs. Dα2/Dα3/Dβ1): -0.255
- Difference of pEC50 values, nAChRs compared (Dα1/Dα3/Dβ1 vs. Dα2/Dα3/Dβ1): 0.39
- Difference of Imax values, nAChRs compared [27]: -0.007
- Difference of pEC50 values, nAChRs compared [27]: -0.09
- Difference of Imax values, nAChRs compared (Dα1/Dα3/Dβ1 vs. Dα3/Dβ1/Dβ2): 0.135
- Difference of pEC50 values, nAChRs compared (Dα1/Dα3/Dβ1 vs. Dα3/Dβ1/Dβ2): -0.26
- Difference of Imax values, nAChRs compared [28]: -0.452
- Difference of pEC50 values, nAChRs compared [28]: 0.05
- Difference of Imax values, nAChRs compared [29]: -0.440
- Difference of pEC50 values, nAChRs compared [29]: 0.33
